Measurements as given in ChEMBL document CHEMBL1212923, “Synthesis and in vivo evaluation of phenethylpiperazine amides: selective 5-hydroxytryptamine(2A) receptor antagonists for the treatment of insomnia” (J Med Chem, 2010).
pKi: −log10 of the molar value.

These compounds were tested against 5-hydroxytryptamine receptor 2A (Homo sapiens, UniProt P28223) (assay: biochemical).
Sequence of 5-hydroxytryptamine receptor 2A (P28223 whole entry): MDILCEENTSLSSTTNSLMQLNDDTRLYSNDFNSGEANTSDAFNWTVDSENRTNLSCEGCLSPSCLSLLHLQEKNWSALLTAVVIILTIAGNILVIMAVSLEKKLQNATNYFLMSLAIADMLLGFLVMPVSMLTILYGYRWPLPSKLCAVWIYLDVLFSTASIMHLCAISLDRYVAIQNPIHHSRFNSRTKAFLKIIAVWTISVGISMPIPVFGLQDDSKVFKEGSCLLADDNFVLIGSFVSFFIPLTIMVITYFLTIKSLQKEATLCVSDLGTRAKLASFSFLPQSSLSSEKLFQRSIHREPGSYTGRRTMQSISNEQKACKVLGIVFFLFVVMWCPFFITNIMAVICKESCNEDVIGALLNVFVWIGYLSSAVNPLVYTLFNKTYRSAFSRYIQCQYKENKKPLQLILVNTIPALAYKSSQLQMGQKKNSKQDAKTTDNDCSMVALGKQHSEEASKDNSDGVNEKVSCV
Description: Displacement of [125I]DOI from human recombinant 5HT2A receptor expressed in HEK293 cells after 1 hr by scintillation counting

Compound	pKi
Cc1cc(C(=O)N2CCN(CC(=O)c3ccc(F)cc3)CC2)nn1C(C)(C)C	8.03
CO/N=C(/CN1CCN(C(=O)c2nn(C)cc2Br)CC1)c1ccc(F)cc1	5.61
Cc1nc2n(c(=O)c1CCN1CCN(C(=O)c3nn(C)cc3Br)CC1)CCCC2	< 5.00
Cn1cc(Br)c(C(=O)N2CCN(CC(=O)c3ccc(OC(F)(F)F)cc3)CC2)n1	5.22
Cn1cc(Br)c(C(=O)N2CCN(CC(=O)c3ccc(F)cc3F)CC2)n1	7.15
Cn1cc(Br)c(C(=O)N2CCN(CCc3cccc(F)c3)CC2)n1	6.27
Cn1cc(Br)c(C(=O)N2CCN(CCc3ccc(Cl)cc3)CC2)n1	7.47
Cc1cc(C(=O)N2CCN(CC(=O)c3ccc(F)cc3)CC2)nn1-c1ccccc1	7.96

What follows are compounds tested against T1, 5-hydroxytryptamine receptor 2C (Homo sapiens, UniProt P28335) (assay: not given).
T1 sequence (P28335 whole entry): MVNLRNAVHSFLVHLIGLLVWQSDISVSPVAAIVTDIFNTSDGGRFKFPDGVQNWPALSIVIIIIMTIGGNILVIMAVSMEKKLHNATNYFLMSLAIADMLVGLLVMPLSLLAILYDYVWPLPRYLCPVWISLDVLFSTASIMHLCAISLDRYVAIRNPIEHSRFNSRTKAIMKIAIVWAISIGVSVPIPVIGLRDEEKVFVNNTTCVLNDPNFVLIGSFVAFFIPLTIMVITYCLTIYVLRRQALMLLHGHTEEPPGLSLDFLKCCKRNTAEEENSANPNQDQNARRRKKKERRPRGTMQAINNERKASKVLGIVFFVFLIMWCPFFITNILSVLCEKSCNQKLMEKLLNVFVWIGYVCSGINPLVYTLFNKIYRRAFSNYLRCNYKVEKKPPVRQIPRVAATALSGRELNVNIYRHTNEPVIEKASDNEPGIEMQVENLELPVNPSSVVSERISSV
Assay type: cell-based, HEK293

Compound	pKi
Cc1cc(C(=O)N2CCN(CC(=O)c3ccc(F)cc3)CC2)nn1C(C)(C)C	< 5.00
CO/N=C(/CN1CCN(C(=O)c2nn(C)cc2Br)CC1)c1ccc(F)cc1	5.07
Cc1nc2n(c(=O)c1CCN1CCN(C(=O)c3nn(C)cc3Br)CC1)CCCC2	< 5.00
Cn1cc(Br)c(C(=O)N2CCN(CC(=O)c3ccc(OC(F)(F)F)cc3)CC2)n1	5.25
Cn1cc(Br)c(C(=O)N2CCN(CC(=O)c3ccc(F)cc3F)CC2)n1	< 5.00
Cn1cc(Br)c(C(=O)N2CCN(CCc3cccc(F)c3)CC2)n1	< 5.00
Cn1cc(Br)c(C(=O)N2CCN(CCc3ccc(Cl)cc3)CC2)n1	< 5.00
Cc1cc(C(=O)N2CCN(CC(=O)c3ccc(F)cc3)CC2)nn1-c1ccccc1	5.43
